Results from patent publication US9232799B2, “N-[(het)arylethyl)] pyrazole(thio)carboxamides and their heterosubstituted analogues” (BAYER INTELLECTUAL PROPERTY GMBH, priority 2010, dated 2016).

Experiments:
[1] = logP by HPLC on reversed-phase column (C 18), EEC Directive 79/831 Annex V.A8; assay type: physicochemical
Protocol: In table 1, the logP values were determined in accordance with EEC Directive 79/831 Annex V.A8 by HPLC (High Performance Liquid Chromatography) on a reversed-phase column (C 18), using the method described below: Temperature: 40° C.; […]

Alternaria solani = assay: In vivo preventive test on Alternaria solani (tomato); conditions: 500 ppm of active ingredient, evaluated 7 days after inoculation
Excerpt: One day after this treatment, the plants are inoculated with an aqueous spore suspension of Alternaria solani.

Pyrenophora teres = assay: In vivo preventive test on Pyrenophora teres (barley); conditions: 500 ppm of active ingredient, evaluated 7-9 days after inoculation
Excerpt: One day after this treatment, the plants are inoculated with an aqueous spore suspension of Pyrenophora teres.

aflatoxines production = assay: microbe, parasite or virus in culture; assay type: cell-based, Aspergillus parasiticus; conditions: 50 μM
Fusarium graminearum = assay: microbe, parasite or virus in culture; assay type: cell-based; conditions: 50 μM

**Q.** Which results are given for `CC(CNC(=O)c1c(C(F)F)nn(C)c1Cl)c1cc(Cl)ccc1Cl` (centres unmarked) [Example 98]?
**A.** logP [1]: 3.55; Efficacy (Alternaria solani): 95%; Efficacy (Pyrenophora teres): 94%; % Inhibition of Aflatoxin at 50 μM (aflatoxines production): 100%; % Inhibition of fungal growth at 50 μM (Fusarium graminearum): 95%

**Q.** Which results are given for `CC(CNC(=O)c1c(C(F)F)nn(C)c1Cl)c1ccc(C(F)(F)F)cc1` (centres unmarked) [Example 128]?
**A.** logP [1]: 3.39; Efficacy (Alternaria solani): 100%; Efficacy (Pyrenophora teres): 94%; % Inhibition of Aflatoxin at 50 μM (aflatoxines production): 100%; % Inhibition of fungal growth at 50 μM (Fusarium graminearum): 82%

**Q.** What does the source list for `CN(CCc1cc(Cl)ccc1Cl)C(=O)c1c(C(F)F)nn(C)c1F` [Example 94]?
**A.** logP [1]: 3.17; Efficacy (Alternaria solani): 100%; Efficacy (Pyrenophora teres): 100%; % Inhibition of Aflatoxin at 50 μM (aflatoxines production): 100%; % Inhibition of fungal growth at 50 μM (Fusarium graminearum): 100%

**Q.** Which logP [1] does the source give for `CCN(CCc1ccc(Cl)cc1)C(=O)c1c(C(F)F)nn(C)c1F` [Example 56] here?
**A.** Its logP is 3.19.

**Q.** What about the Efficacy (Alternaria solani) of the same compound?
**A.** The Efficacy was 100%.

**Q.** And the Efficacy (Pyrenophora teres)?
**A.** The Efficacy was 100%.

**Q.** And the “% Inhibition of Aflatoxin at 50 μM” value (aflatoxines production)?
**A.** Its value is 100%.

**Q.** What about the “% Inhibition of fungal growth at 50 μM” value (Fusarium graminearum) of the same compound?
**A.** The value was 93%.

**Q.** With `Cn1nc(C(F)F)c(C(=O)NCC(c2cccs2)C(F)(F)F)c1F` (centres unmarked) [Example 161] as the compound, how does the logP [1] read?
**A.** Its logP is 2.75.

**Q.** And the Efficacy (Alternaria solani)?
**A.** The Efficacy was 95%.

**Q.** And the Efficacy (Pyrenophora teres)?
**A.** The Efficacy was 100%.

**Q.** And the “% Inhibition of Aflatoxin at 50 μM” value (aflatoxines production)?
**A.** The value was 100%.

**Q.** What about the “% Inhibition of fungal growth at 50 μM” value (Fusarium graminearum) of the same compound?
**A.** The value was 85%.

**Q.** For `CN(CCc1ccccc1C(F)(F)F)C(=O)c1c(C(F)F)nn(C)c1F` [Example 123], which logP [1] is on record?
**A.** Its logP is 3.00.

**Q.** What about the Efficacy (Alternaria solani) of the same compound?
**A.** Its Efficacy is 100%.

**Q.** And the Efficacy (Pyrenophora teres)?
**A.** Its Efficacy is 95%.

**Q.** And the “% Inhibition of Aflatoxin at 50 μM” value (aflatoxines production)?
**A.** Its value is 100%.

**Q.** What about the “% Inhibition of fungal growth at 50 μM” value (Fusarium graminearum) of the same compound?
**A.** The value was 100%.

**Q.** Which logP [1] does the source give for `Cc1cc(C)c(CCN(C)C(=O)c2c(C(F)F)nn(C)c2F)c(C)c1` [Example 135] here?
**A.** Its logP is 3.48.

**Q.** And the Efficacy (Alternaria solani)?
**A.** Its Efficacy is 95%.

**Q.** What about the Efficacy (Pyrenophora teres) of the same compound?
**A.** Its Efficacy is 95%.

**Q.** And the “% Inhibition of Aflatoxin at 50 μM” value (aflatoxines production)?
**A.** The value was 100%.

**Q.** What about the “% Inhibition of fungal growth at 50 μM” value (Fusarium graminearum) of the same compound?
**A.** Its value is 96%.

**Q.** Which logP [1] does the source give for `Cn1nc(C(F)F)c(C(=O)N(CCc2ccccc2)C2CC2)c1Cl` [Example 12] here?
**A.** The logP was 3.06.

**Q.** What about the Efficacy (Alternaria solani) of the same compound?
**A.** The Efficacy was 100%.

**Q.** And the Efficacy (Pyrenophora teres)?
**A.** The Efficacy was 100%.

**Q.** What about the “% Inhibition of Aflatoxin at 50 μM” value (aflatoxines production) of the same compound?
**A.** The value was 100%.

**Q.** And the “% Inhibition of fungal growth at 50 μM” value (Fusarium graminearum)?
**A.** Its value is 92%.

**Q.** With `Cn1nc(C(F)F)c(C(=O)NCCc2cc(Cl)ccc2Cl)c1F` [Example 90] as the compound, how does the logP [1] read?
**A.** The logP was 3.11.

**Q.** What about the Efficacy (Alternaria solani) of the same compound?
**A.** The Efficacy was 95%.

**Q.** What about the Efficacy (Pyrenophora teres) of the same compound?
**A.** Its Efficacy is 100%.

**Q.** And the “% Inhibition of Aflatoxin at 50 μM” value (aflatoxines production)?
**A.** Its value is 100%.

**Q.** And the “% Inhibition of fungal growth at 50 μM” value (Fusarium graminearum)?
**A.** Its value is 100%.

**Q.** For `Cn1nc(C(F)F)c(C(=O)NC[Si](C)(C)c2cc(Cl)cc(Cl)c2)c1F` [Example 244], which logP [1] is on record?
**A.** The logP was 4.08.

**Q.** And the Efficacy (Alternaria solani)?
**A.** The Efficacy was 100%.

**Q.** What about the Efficacy (Pyrenophora teres) of the same compound?
**A.** The Efficacy was 95%.

**Q.** What about the “% Inhibition of Aflatoxin at 50 μM” value (aflatoxines production) of the same compound?
**A.** Its value is 100%.

**Q.** And the “% Inhibition of fungal growth at 50 μM” value (Fusarium graminearum)?
**A.** Its value is 100%.

**Q.** Which results are given for `Cn1nc(C(F)F)c(C(=O)NC[Si](C)(C)c2cccc(Cl)c2)c1F` [Example 237]?
**A.** logP [1]: 3.55; Efficacy (Alternaria solani): 100%; Efficacy (Pyrenophora teres): 100%; % Inhibition of Aflatoxin at 50 μM (aflatoxines production): 100%; % Inhibition of fungal growth at 50 μM (Fusarium graminearum): 100%

**Q.** Which logP [1] does the source give for `Cn1nc(C(F)F)c(C(=O)NC[Si](C)(C)c2ccccc2)c1F` [Example 228] here?
**A.** Its logP is 3.13.

**Q.** And the Efficacy (Alternaria solani)?
**A.** The Efficacy was 100%.

**Q.** And the Efficacy (Pyrenophora teres)?
**A.** Its Efficacy is 100%.

**Q.** And the “% Inhibition of Aflatoxin at 50 μM” value (aflatoxines production)?
**A.** The value was 100%.

**Q.** And the “% Inhibition of fungal growth at 50 μM” value (Fusarium graminearum)?
**A.** Its value is 93%.

**Q.** For `CC(CNC(=O)c1c(C(F)F)nn(C)c1F)c1cc(Cl)ccc1Cl` (centres unmarked) [Example 97], which logP [1] is on record?
**A.** Its logP is 3.35.

**Q.** And the Efficacy (Alternaria solani)?
**A.** The Efficacy was 95%.

**Q.** And the Efficacy (Pyrenophora teres)?
**A.** Its Efficacy is 100%.

**Q.** What about the “% Inhibition of Aflatoxin at 50 μM” value (aflatoxines production) of the same compound?
**A.** Its value is 100%.

**Q.** And the “% Inhibition of fungal growth at 50 μM” value (Fusarium graminearum)?
**A.** The value was 100%.

**Q.** Which logP [1] does the source give for `Cc1c(CCNC(=O)c2c(C(F)F)nn(C)c2F)sc2ccccc12` [Example 171] here?
**A.** Its logP is 3.27.

**Q.** What about the Efficacy (Alternaria solani) of the same compound?
**A.** The Efficacy was 100%.

**Q.** What about the Efficacy (Pyrenophora teres) of the same compound?
**A.** The Efficacy was 100%.

**Q.** What about the “% Inhibition of Aflatoxin at 50 μM” value (aflatoxines production) of the same compound?
**A.** The value was 100%.

**Q.** What about the “% Inhibition of fungal growth at 50 μM” value (Fusarium graminearum) of the same compound?
**A.** The value was 93%.

**Q.** For `Cn1nc(C(F)F)c(C(=O)NCCc2cc(Cl)ccc2Cl)c1Cl` [Example 91], which logP [1] is on record?
**A.** Its logP is 3.29.

**Q.** And the Efficacy (Alternaria solani)?
**A.** Its Efficacy is 95%.

**Q.** What about the Efficacy (Pyrenophora teres) of the same compound?
**A.** Its Efficacy is 100%.

**Q.** What about the “% Inhibition of Aflatoxin at 50 μM” value (aflatoxines production) of the same compound?
**A.** Its value is 100%.

**Q.** What about the “% Inhibition of fungal growth at 50 μM” value (Fusarium graminearum) of the same compound?
**A.** Its value is 100%.

**Q.** For `CC(CNC(=O)c1c(C(F)F)nn(C)c1Cl)c1cc(Cl)cc(Cl)c1` (centres unmarked) [Example 112], which logP [1] is on record?
**A.** Its logP is 3.73.

**Q.** And the Efficacy (Alternaria solani)?
**A.** The Efficacy was 95%.

**Q.** What about the Efficacy (Pyrenophora teres) of the same compound?
**A.** The Efficacy was 100%.

**Q.** And the “% Inhibition of Aflatoxin at 50 μM” value (aflatoxines production)?
**A.** The value was 100%.

**Q.** And the “% Inhibition of fungal growth at 50 μM” value (Fusarium graminearum)?
**A.** Its value is 83%.

**Q.** Which results are given for `Cn1nc(C(F)F)c(C(=O)NC[Si](C)(C)c2ccccc2)c1Cl` [Example 227]?
**A.** logP [1]: 3.31; Efficacy (Alternaria solani): 95%; Efficacy (Pyrenophora teres): 100%; % Inhibition of Aflatoxin at 50 μM (aflatoxines production): 87%; % Inhibition of fungal growth at 50 μM (Fusarium graminearum): 71%

**Q.** What does the source list for `CC(CNC(=O)c1c(C(F)F)nn(C)c1F)c1cc(Cl)cc(Cl)c1` (centres unmarked) [Example 111]?
**A.** logP [1]: 3.55; Efficacy (Alternaria solani): 95%; Efficacy (Pyrenophora teres): 100%; % Inhibition of Aflatoxin at 50 μM (aflatoxines production): 100%; % Inhibition of fungal growth at 50 μM (Fusarium graminearum): 96%

**Q.** Which results are given for `CC(CN(C(=O)c1c(C(F)F)nn(C)c1Cl)C1CC1)c1ccccc1` (centres unmarked) [Example 14]?
**A.** logP [1]: 3.31; Efficacy (Alternaria solani): 100%; Efficacy (Pyrenophora teres): 100%; % Inhibition of Aflatoxin at 50 μM (aflatoxines production): 100%; % Inhibition of fungal growth at 50 μM (Fusarium graminearum): 100%
